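The compound was tested at five concentrations on cells cultured in 96-well plates, with a 48-hour exposure period. Abbreviation: GI50, concentration required for 50% inhibition of growth.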 Active and inactive are the calls of the source. Cut-off read from the data, not from the text of the source: active = GI50 up to about 1.1 µM and inactive = higher.
Key:
Experiment in all cases: NCI-60 cell line screen, 48 h
SK-MEL-2 = system: SK-MEL-2
786-0 = system: 786-0
MDA-MB-435 = system: MDA-MB-435
Hs-578T = system: Hs-578T
SF-295 = system: SF-295
T47D = system: T47D
NCI-H460 = system: NCI-H460
A498 = system: A498
UO-31 = system: UO-31
NCI/ADR-RES = system: NCI/ADR-RES
NCI-H23 = system: NCI-H23
UACC-257 = system: UACC-257
A549 = system: A549
SF-539 = system: SF-539
RPMI-8226 = system: RPMI-8226
PC-3 = system: PC-3
SK-MEL-5 = system: SK-MEL-5
EKVX = system: EKVX
K562 = system: K562
OVCAR-8 = system: OVCAR-8
BT-549 = system: BT-549
SN12C = system: SN12C
SF-268 = system: SF-268
HL-60 = system: HL-60
LOX IMVI = system: LOX IMVI
CAKI-1 = system: CAKI-1
RXF 393 = system: RXF 393
OVCAR-3 = system: OVCAR-3
SNB-19 = system: SNB-19
MDA-MB-231 = system: MDA-MB-231
ACHN = system: ACHN
NCI-H522 = system: NCI-H522
MDA-N = system: MDA-N
SW-620 = system: SW-620
SR = system: SR
SK-OV-3 = system: SK-OV-3
COLO 205 = system: COLO 205
HOP-92 = system: HOP-92
Malme-3M = system: Malme-3M
OVCAR-4 = system: OVCAR-4
HCT-15 = system: HCT-15
HCC 2998 = system: HCC 2998
CCRF-CEM = system: CCRF-CEM
MCF7 = system: MCF7
SNB-75 = system: SNB-75
UACC-62 = system: UACC-62
TK-10 = system: TK-10
HCT-116 = system: HCT-116
IGROV-1 = system: IGROV-1
SK-MEL-28 = system: SK-MEL-28
NCI-H226 = system: NCI-H226
U-251 = system: U-251
HOP-62 = system: HOP-62
KM12 = system: KM12
M14 = system: M14
DU-145 = system: DU-145
OVCAR-5 = system: OVCAR-5
MOLT-4 = system: MOLT-4
HT-29 = system: HT-29

For `CC(=O)Oc1cccc2c(/C=N/NC(N)=S)ncc(C)c12`, the GI50 (SK-MEL-2) was 5.94 µM (inactive), the GI50 (786-0) was 0.322 µM (active) and the GI50 (MDA-MB-435) was 4.29 µM (inactive). For the same molecule, the GI50 (Hs-578T) was 20.6 µM (inactive), the GI50 (SF-295) was 2.47 µM (inactive) and the GI50 (T47D) was 1.47 µM (inactive). The GI50 (NCI-H460) was 0.966 µM (active), the GI50 (A498) was 7.55 µM (inactive) and the GI50 (UO-31) was 1.05 µM (active). For the same molecule, the GI50 (NCI/ADR-RES) was 1.01 µM (active), the GI50 (NCI-H23) was 0.746 µM (active) and the GI50 (UACC-257) was 5.51 µM (inactive). For the same molecule, the GI50 (A549) was 3.81 µM (inactive), the GI50 (SF-539) was 0.207 µM (active) and the GI50 (RPMI-8226) was 1.56 µM (inactive). The GI50 (PC-3) was 1.9 µM (inactive), the GI50 (SK-MEL-5) was 1.38 µM (inactive) and the GI50 (EKVX) was 4.72 µM (inactive). The GI50 (K562) was 1.31 µM (inactive), the GI50 (OVCAR-8) was 0.463 µM (active) and the GI50 (BT-549) was 1.28 µM (inactive). The GI50 (SN12C) was 0.863 µM (active), the GI50 (SF-268) was 0.357 µM (active) and the GI50 (HL-60) was 0.931 µM (active). For the same molecule, the GI50 (LOX IMVI) was 0.596 µM (active), the GI50 (CAKI-1) was 4.17 µM (inactive) and the GI50 (RXF 393) was 4.15 µM (inactive). The GI50 (OVCAR-3) was 0.381 µM (active), the GI50 (SNB-19) was 1.2 µM (inactive) and the GI50 (MDA-MB-231) was 2.58 µM (inactive). For the same molecule, the GI50 (ACHN) was 0.445 µM (active), the GI50 (NCI-H522) was 0.705 µM (active) and the GI50 (MDA-N) was 3.59 µM (inactive). The GI50 (SW-620) was 4.59 µM (inactive), the GI50 (SR) was 0.331 µM (active) and the GI50 (SK-OV-3) was 1.46 µM (inactive). For the same molecule, the GI50 (COLO 205) was 3.4 µM (inactive), the GI50 (HOP-92) was 3.27 µM (inactive) and the GI50 (Malme-3M) was 1.26 µM (inactive). The GI50 (OVCAR-4) was 7.41 µM (inactive), the GI50 (HCT-15) was 2.88 µM and the GI50 (HCC 2998) was 0.818 µM (active). The GI50 (CCRF-CEM) was 0.422 µM (active), the GI50 (MCF7) was 0.603 µM (active) and the GI50 (SNB-75) was 4.03 µM (inactive). For the same molecule, the GI50 (UACC-62) was 1.17 µM (inactive), the GI50 (TK-10) was 7.64 µM (inactive) and the GI50 (HCT-116) was 1.96 µM (inactive). The GI50 (IGROV-1) was 2.99 µM (inactive), the GI50 (SK-MEL-28) was 13.2 µM (inactive) and the GI50 (NCI-H226) was 2.96 µM (inactive). The GI50 (U-251) was 1.01 µM (active), the GI50 (HOP-62) was 1.07 µM (active) and the GI50 (KM12) was 0.895 µM (active). The GI50 (M14) was 0.753 µM (active), the GI50 (DU-145) was 0.347 µM (active) and the GI50 (OVCAR-5) was 7.35 µM (inactive). For the same molecule, the GI50 (MOLT-4) was 0.385 µM (active) and the GI50 (HT-29) was 4.48 µM (inactive).
With `C[C@]12CC[C@H]3[C@@H](CCC4=CC(=O)C=C[C@@]43OC(=O)C(F)(F)F)[C@@H]1CCC2=O` the GI50 (SK-MEL-2) was > 100 µM (inactive), the GI50 (786-0) was > 45.6 µM (inactive) and the GI50 (MDA-MB-435) was > 100 µM (inactive). The GI50 (Hs-578T) was > 100 µM (inactive), the GI50 (SF-295) was > 100 µM (inactive) and the GI50 (T47D) was > 100 µM (inactive). The GI50 (NCI-H460) was > 100 µM (inactive), the GI50 (A498) was > 100 µM (inactive) and the GI50 (UO-31) was > 100 µM (inactive). For the same molecule, the GI50 (NCI/ADR-RES) was > 65.8 µM (inactive), the GI50 (NCI-H23) was > 100 µM (inactive) and the GI50 (UACC-257) was > 100 µM (inactive). The GI50 (A549) was > 52.6 µM (inactive), the GI50 (SF-539) was > 100 µM (inactive) and the GI50 (RPMI-8226) was > 100 µM (inactive). For the same molecule, the GI50 (PC-3) was > 100 µM (inactive), the GI50 (SK-MEL-5) was > 100 µM (inactive) and the GI50 (EKVX) was > 100 µM (inactive). For the same molecule, the GI50 (K562) was > 100 µM (inactive), the GI50 (OVCAR-8) was > 100 µM (inactive) and the GI50 (BT-549) was > 100 µM (inactive). The GI50 (SN12C) was > 100 µM (inactive), the GI50 (SF-268) was > 100 µM (inactive) and the GI50 (HL-60) was > 100 µM (inactive). For the same molecule, the GI50 (LOX IMVI) was > 100 µM (inactive), the GI50 (CAKI-1) was > 100 µM (inactive) and the GI50 (RXF 393) was > 100 µM (inactive). The GI50 (OVCAR-3) was > 100 µM (inactive), the GI50 (SNB-19) was > 33.6 µM (inactive) and the GI50 (MDA-MB-231) was > 100 µM (inactive). The GI50 (ACHN) was > 100 µM (inactive), the GI50 (NCI-H522) was > 84.1 µM (inactive) and the GI50 (MDA-N) was > 100 µM (inactive). The GI50 (SW-620) was > 100 µM (inactive), the GI50 (SR) was > 100 µM (inactive) and the GI50 (SK-OV-3) was > 100 µM (inactive). For the same molecule, the GI50 (COLO 205) was > 100 µM (inactive), the GI50 (HOP-92) was > 100 µM (inactive) and the GI50 (Malme-3M) was 0.558 µM (active). For the same molecule, the GI50 (OVCAR-4) was > 100 µM (inactive), the GI50 (HCT-15) was over 100 µM and the GI50 (HCC 2998) was > 100 µM (inactive). For the same molecule, the GI50 (CCRF-CEM) was > 100 µM (inactive), the GI50 (MCF7) was > 100 µM (inactive) and the GI50 (SNB-75) was > 100 µM (inactive). The GI50 (UACC-62) was > 85.5 µM (inactive), the GI50 (TK-10) was > 100 µM (inactive) and the GI50 (HCT-116) was > 34.7 µM (inactive). The GI50 (IGROV-1) was > 100 µM (inactive), the GI50 (SK-MEL-28) was > 100 µM (inactive) and the GI50 (NCI-H226) was > 100 µM (inactive). The GI50 (U-251) was > 100 µM (inactive), the GI50 (HOP-62) was > 100 µM (inactive) and the GI50 (KM12) was > 100 µM (inactive). The GI50 (M14) was > 100 µM (inactive), the GI50 (DU-145) was > 100 µM (inactive) and the GI50 (OVCAR-5) was > 100 µM (inactive). The GI50 (MOLT-4) was > 95.5 µM (inactive) and the GI50 (HT-29) was > 100 µM (inactive).
`COc1cc(C2c3cc4c(cc3OC(NCCc3ccccc3)C2C)OCO4)cc(OC)c1OC` (configuration not stated) was tested, and the GI50 (SK-MEL-2) was 0.393 µM (active), the GI50 (786-0) was 0.465 µM (active) and the GI50 (MDA-MB-435) was 0.111 µM (active). The GI50 (Hs-578T) was 0.138 µM (active), the GI50 (SF-295) was 0.2 µM (active) and the GI50 (T47D) was 0.295 µM (active). The GI50 (NCI-H460) was 0.418 µM (active), the GI50 (A498) was 0.574 µM (active) and the GI50 (UO-31) was 0.457 µM (active). For the same molecule, the GI50 (NCI/ADR-RES) was 0.31 µM (active), the GI50 (NCI-H23) was 0.413 µM (active) and the GI50 (UACC-257) was 6.34 µM (inactive). For the same molecule, the GI50 (A549) was 0.452 µM (active), the GI50 (SF-539) was 0.286 µM (active) and the GI50 (RPMI-8226) was 0.319 µM (active). The GI50 (PC-3) was 0.336 µM (active), the GI50 (SK-MEL-5) was 0.224 µM (active) and the GI50 (EKVX) was 1.56 µM (inactive). The GI50 (K562) was 0.269 µM (active), the GI50 (OVCAR-8) was 0.441 µM (active) and the GI50 (BT-549) was 0.617 µM (active). The GI50 (SN12C) was 0.698 µM (active), the GI50 (SF-268) was 0.736 µM (active) and the GI50 (HL-60) was 0.208 µM (active). For the same molecule, the GI50 (LOX IMVI) was 0.497 µM (active), the GI50 (CAKI-1) was 0.291 µM (active) and the GI50 (RXF 393) was 0.203 µM (active). For the same molecule, the GI50 (OVCAR-3) was 0.378 µM (active), the GI50 (SNB-19) was 0.455 µM (active) and the GI50 (MDA-MB-231) was 0.249 µM (active). For the same molecule, the GI50 (ACHN) was 1.36 µM (inactive), the GI50 (NCI-H522) was 0.248 µM (active) and the GI50 (MDA-N) was 0.0638 µM (active). For the same molecule, the GI50 (SW-620) was 0.316 µM (active), the GI50 (SR) was 0.174 µM (active) and the GI50 (SK-OV-3) was 0.397 µM (active). For the same molecule, the GI50 (COLO 205) was 0.242 µM (active), the GI50 (HOP-92) was 4.67 µM (inactive) and the GI50 (Malme-3M) was 0.231 µM (active). The GI50 (OVCAR-4) was 0.778 µM (active), the GI50 (HCT-15) was 0.385 µM and the GI50 (HCC 2998) was 0.282 µM (active). The GI50 (CCRF-CEM) was 0.343 µM (active), the GI50 (MCF7) was 0.383 µM (active) and the GI50 (SNB-75) was 0.198 µM (active). For the same molecule, the GI50 (UACC-62) was 0.388 µM (active), the GI50 (TK-10) was 26.5 µM (inactive) and the GI50 (HCT-116) was 0.409 µM (active). The GI50 (IGROV-1) was 0.367 µM (active), the GI50 (SK-MEL-28) was 18.3 µM (inactive) and the GI50 (NCI-H226) was 0.871 µM (active). The GI50 (U-251) was 0.348 µM (active), the GI50 (HOP-62) was 0.614 µM (active) and the GI50 (KM12) was 0.316 µM (active). The GI50 (M14) was 0.356 µM (active), the GI50 (DU-145) was 0.431 µM (active) and the GI50 (OVCAR-5) was 1.75 µM (inactive). For the same molecule, the GI50 (MOLT-4) was 0.515 µM (active) and the GI50 (HT-29) was 0.321 µM (active).

Reference: ChEMBL document CHEMBL1201862, “PubChem BioAssay data set” (2004)
